Data published in PubChem BioAssay AID1508591.

Conditions: rat; liver microsomes; pH 7.4; 15.0 min; 1.0 µM

Row | half-life [min] | SMILES
1 | > 30 | CN(C)C(=O)c1nc(-c2ccc(S(C)(=O)=O)cc2)c2cnccn12
2 | 4.28 | NC(=O)C1CCN(c2nccc(-c3ccc4c(c3)OCCCO4)n2)CC1
3 | 1.6 | CC(=O)c1c(C)[nH]c(C(=O)Nc2cccc(S(=O)(=O)N3CCCCCC3)c2)c1C
4 | 23.4 | COc1ccc(-n2nc(C3CCCN(C(=O)c4cccc(OC)c4)C3)[nH]c2=O)cc1 (stereo unspecified)
5 | 3.9 | NC(=O)C1CCN(c2nc(-c3ccccc3[N+](=O)[O-])cs2)CC1
6 | 2.32 | Cc1ccc(C)c(CN2C(=O)c3ccccc3S(=O)c3ccc(C(=O)N4CCN(c5ccccc5F)CC4)cc32)c1 (stereo unspecified)
7 | > 30 | O=C(Cc1ccc(-c2csc(Nc3ccc(F)cc3)n2)s1)N1CCOCC1
8 | 4 | Cc1ccc(S(=O)(=O)Nc2ccccc2C(=O)Nc2ccc(-c3ccccc3)nn2)cc1
9 | > 30 | O=C(Nc1ccc(S(=O)(=O)Nc2nccs2)cc1)c1cccc2ccccc12
10 | 1 | CCOC(=O)C1CCN(C(=O)Nc2ccc3c(c2)nc(C)n3C)CC1
11 | > 30 | Cc1ccc(-c2cc(C(=O)Nc3ccc(S(N)(=O)=O)cc3)c3cccc(C)c3n2)cc1C
12 | 4.4 | CC(=O)c1c(C)[nH]c(C(=O)Nc2cccc([S+](=O)([O-])Nc3ccccc3C)c2)c1C
13 | 5.68 | COc1ccccc1Nc1ccnc(N2CCN(C(=O)c3ccc(C)cc3)CC2)n1
14 | 1.41 | CC(=O)N1CCc2c(sc3c2c(=O)n(-c2ccccc2Cl)c(=O)n3Cc2cccc(C)c2)C1
15 | 25.5 | C#Cc1ccc(NC(=O)c2cnn3c(C)cc(C)nc23)cc1

Continued, compound first:

Row | SMILES | half-life [min]
16 | O=C1Nc2ccccc2/C1=C/c1ccc[nH]1 | 5.1
17 | Oc1ccc2[nH]cc(CCCCN3CC=C(c4ccccc4)CC3)c2c1 | > 30
18 | Fc1ccc(Nc2ccnc(-c3ccncc3)n2)cc1F | 13
19 | C[C@@H]1CC(=O)Nc2cccc(-c3cnn(C(C)(C)C)c3)c2N1 | > 30
20 | CC(C)N(CCCNC(=O)Nc1ccc(C(C)(C)C)cc1)C[C@H]1O[C@@H](n2cc(Br)c3c(N)ncnc32)[C@H](O)[C@H]1O | 2.47
21 | Cc1cc(-c2cc3c(nc2-c2ccccc2)nc(C(=O)NCCN(C)C)n3C)ccn1 | > 30
22 | COc1cc(-c2nc(Nc3ccc(F)c(F)c3)c3ccccc3n2)cc(OC)n1 | > 30
23 | N#Cc1ccc(Nc2ncc(-c3cccc4ccccc34)o2)cc1 | > 30
24 | CCC(CC)C(=O)NC[C@@H]1C=C(C)[C@H](Cc2nc3c(C)cccc3[nH]2)C[C@H]1C(C)C | 1.12
25 | O=[S+]([O-])(Nc1nccs1)c1ccc(NCc2ccc(Cl)c(Cl)c2)cc1 | 24
26 | Cc1ccc(-c2nc3ccccc3o2)cc1NC(=O)COc1ccccc1 | 3.5
27 | Cc1noc([C@@H]2CN(C(=O)c3nn(C)c4ccccc34)C[C@H]2CO)n1 | > 30
28 | Fc1ccc(Nc2nc(-c3ccccc3)cc(-c3ccncc3)n2)cc1F | > 30
29 | Oc1ccccc1NCC(O)Cn1ccc2ccccc21 (stereo unspecified) | 2.37
30 | COc1cc(/C=C(\C#N)c2nc3ccccc3[nH]2)ccc1OCc1ccc(F)cc1 | 7.99
31 | NC(=O)C1CCN(c2ncc(-c3ccc(Br)cc3)s2)CC1 | 3.6
32 | Cc1nn(Cc2ccc(Cl)cc2)c(C)c1NC(=O)c1cc(-c2ccc3c(c2)OCO3)on1 | 6.4
33 | Cc1cccc(-c2noc([C@@H]3Cc4nc[nH]c4CN3)n2)c1 | > 30
34 | Cc1cc(C)c(CNC(=O)c2nc(-c3ccc(F)cc3)cc3c2ccn3C(C)C)c(=O)[nH]1 | 7.89
35 | O=C(c1ccncc1)N1CCC2(CCCN(C(c3ccccc3)c3ccccc3)C2)CC1 | 2.2
36 | O=C(Nc1nc(-c2ccccc2)cs1)c1ccncc1NS(=O)(=O)c1ccc(-c2ccccc2)cc1 | 2
37 | CCOc1ccc(CCNC(=O)c2cc3ccccc3o2)cc1OCC | 1.6
38 | O=C1Nc2ccc(Cl)cc2/C1=C\c1cc(Cl)c(O)c(Cl)c1 | > 30
39 | COc1ccc(CCNc2ncnc3c2c(-c2ccccc2)cn3-c2cccc(Cl)c2)cc1OC | 2.33
40 | COCCNc1ncc(-c2cccc(O)c2)c2c1OCC2 | 8.62
41 | Cc1cc(Nc2ccc(Br)c(C)c2)n2nc(C)nc2n1 | 6.7
